Results as given in patent US11612586B2, “Indole regulation of antigen presenting cells” (THE TEXAS A&M UNIVERSITY SYSTEM, priority 2016, dated 2023).

Columns and labels:
Stat3 [1] = test: IL-6-induced phospho-Stat3 in BMDCs, flow cytometry; assay type: cell-based, mouse
Procedure: Flow cytometric analysis was performed on BMDCs conditioned with indole from day 3 of culture and subsequently stimulated with IL-6 (10 ng/ml) for the given times. Cells were stained for phospho-Stat3 and analyzed by flow cytometry.
Flow cytometric analysis of BMDCs from WT or AhrKO mice cultured in the presence of indole or DMF from day 3. DCs were stimulated with IL-6 (10 ng/ml) for the given times and stained for phospho-Stat3, which was detected by flow cytometry. Stat3 signaling is shown as percent of phosphorylated cells (FIG. 10A), and MFI of the Stat3 positive population (FIGS. 10B and 10C). The specific Stat3 inhibitor, cucurbitacin I, was included as a negative control. Representative data is shown from one of four independent experiments.
BMDCs were conditioned with indole from day 3 and then induced Stat3 signaling by stimulation with IL-6 (FIGS. 6A and 6B). While Stat3 has both a tyrosine (Y705) and serine (S727) activation site, tyrosine phosphorylation is mediated by Janus kinases and required for Stat3 nuclear localization and subsequent DNA binding. Thus, the […] was queried for this study.

Stat3 [2] = test: IL-6 induced pSTAT3 signaling in splenic DCs; assay type: cell-based, mouse; settings: splenic DCs, 1 mM TDMM 24 hours, IL-6 (10 ng/ml) 30 minutes
Procedure: Briefly, flow cytometric analysis was performed on splenic DCs conditioned with the indicated TDMMs for 24 hours and then subsequently stimulated with 10 ng/ml IL-6 for 30 minutes.

TNF = TNF production in BMDMs, intracellular staining, flow cytometry; assay type: cell-based, mouse
Procedure: BMDMs were treated with indole or DMF control for 18 hours or 4 hours, followed by stimulation with LPS (2 ug/ml or 250 ng/ml) for 4 hours in the presence of Golgiplug. BMDMs were then stained for intracellular TNF or IL-12 and analyzed by flow cytometry.
First, pro-inflammatory cytokine production in macrophages was investigated. […] In the DC study described herein, DCs were typically conditioned with indole during their development from bone marrow precursors in order to mimic the proximity of DC progenitor cells to indole in the intestinal microenvironment during development. […] BMDMs were treated for 18 hours with indole, followed by a 4 hour stimulation with either a very high (2 ug/ml) or low (250 ng/ml) dose of LPS.
Additionally, to determine if recently arrived macrophage precursors might also be affected, BMDMs were next treated for just 4 hours with indole, followed by a […] stimulation with the same LPS concentrations.
To address the question of indole and AhR dependence in macrophages, experiments using BMDMs derived from AhR-knockout mice were run alongside wild-type littermate controls. Specifically, flow cytometric analysis of BMDMs was performed on WT or AhR-KO mice and treated with indole or DMF control for 18 hours. BMDMs were stimulated for 4 hours with LPS (50 ng/ml) in the presence of Golgiplug, then stained for intracellular TNF (left panels) and IL-12 (right panels).
The inventors performed a series of assays where bone marrow derived macrophages (BMDMs), bone marrow derived dendritic cells (BMDCs), and splenic dendritic cells (splenic DCs), were exposed to a series of TDMMs, including indole, indole-3-acetate (I3AT), 5-hydroxyindole (5HI), and indole-3-pyruvate (I3P), as well as indole-3-carbinol (I3C; a plant derived compound) to be used for a positive control (1 mM for 24 hours). The BMDMs and BMDCs were stimulated with LPS for 4 hours and assayed at day 7 for expression of various pro-inflammatory cytokines. In a similar assay, the BMDMs and BMDCs were stimulated with LPS or CpG, respectively, for 15 minutes and assayed for pAKT and pERK signaling, which is a reflection of pro-inflammatory response.
Bone marrow was harvested as described above and cultured at a density of 1×10^6 cells in 10 ml complete media supplemented with 10 ng/ml M-CSF (Peprotech) in 100 mm×15 mm petri dishes. Media with cytokine was replenished on day 3. Adherent and semi-adherent cells were recovered on day 7, plated, and treated with indole prior to downstream experiments.

DCs = test: DC viability: lactate dehydrogenase release and propidium iodide uptake; settings: versus solvent controls

## c1ccc2[nH]ccc2c1 [Indole, indole]
Stat3 [1]; BMDCs, 1 mM indole from day 3, IL-6 10 ng/ml, 15 minutes post-stimulation
  peak phosphorylation of Stat3 (percentage of DCs): 8%
Stat3 [1]; BMDCs, indole from day 3, IL-6 stimulation, throughout 60 minute timecourse
  suppression of phospho-Stat3 MFI: ≥ 2 fold
Stat3 [1]; indole-DCs generated from WT or AhR−/− bone marrow
  inhibition of Stat3 phospho-signaling, WT versus AhR−/−: nearly equivalent inhibition
Stat3 [2]
  IL-6 induced pSTAT3 expression, CD4+ DCs: ↓↓
  IL-6 induced pSTAT3 expression, CD4− DCs: ↓↓
TNF; BMDMs from WT or AhR-KO mice, 1 mM indole 18 hours, LPS 50 ng/ml 4 hours
  reduction of TNF production: approximately 2 fold
TNF; BMDMs, 1 mM TDMM 24 hours, LPS 1 ug/ml 4 hours
  TNF: ↓↓↓
TNF; BMDMs, 1 mM indole 18 hours, LPS 2 ug/ml or 250 ng/ml 4 hours
  inhibition of TNF production: ~2 fold
DCs
  cytotoxicity in DCs: did not induce cytotoxicity
